According to PubChem BioAssay (NCI):
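Grown in 96-well plates, cells were treated for 48 hours with each compound at five concentrations. Insufficient inhibition: endpoint recorded as highest concentration tested. At the GI50, growth is halved. Definition used: TGI = concentration required for complete inhibition of growth.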

Experiments:
Assay in all cases: inhibition of tumour cell growth, NCI panel, 48 h
LOX IMVI melanoma = test system: LOX IMVI melanoma
SK-MEL-28 melanoma = test system: SK-MEL-28 melanoma
UACC-62 melanoma = test system: UACC-62 melanoma
MCF7 breast = test system: MCF7 breast
SNB-75 CNS = test system: SNB-75 CNS
SW-620 colon = test system: SW-620 colon
SF-295 CNS = test system: SF-295 CNS
TK-10 renal = test system: TK-10 renal
OVCAR-5 ovarian = test system: OVCAR-5 ovarian
HCT-15 colon = test system: HCT-15 colon
786-0 renal = test system: 786-0 renal
PC-3 prostate = test system: PC-3 prostate
KM12 colon = test system: KM12 colon
NCI-H522 lung = test system: NCI-H522 lung
HOP-92 NSCLC = test system: HOP-92 NSCLC
COLO 205 colon = test system: COLO 205 colon
HOP-62 NSCLC = test system: HOP-62 NSCLC
RXF 393 renal = test system: RXF 393 renal
SK-MEL-2 melanoma = test system: SK-MEL-2 melanoma
M14 melanoma = test system: M14 melanoma
DU-145 prostate = test system: DU-145 prostate
NCI/ADR-RES ovarian = test system: NCI/ADR-RES ovarian
BT-549 breast = test system: BT-549 breast
CCRF-CEM leukemia = test system: CCRF-CEM leukemia
HCC-2998 colon = test system: HCC-2998 colon
NCI-H23 lung = test system: NCI-H23 lung
OVCAR-4 ovarian = test system: OVCAR-4 ovarian
T-47D breast = test system: T-47D breast
SR leukemia = test system: SR leukemia
U251 CNS = test system: U251 CNS
A498 renal = test system: A498 renal
SF-539 CNS = test system: SF-539 CNS
SF-268 CNS = test system: SF-268 CNS
UO-31 renal = test system: UO-31 renal
HS 578T breast = test system: HS 578T breast
OVCAR-3 ovarian = test system: OVCAR-3 ovarian
UACC-257 melanoma = test system: UACC-257 melanoma
HCT-116 colon = test system: HCT-116 colon
RPMI-8226 leukemia = test system: RPMI-8226 leukemia
IGROV1 ovarian = test system: IGROV1 ovarian
HT29 colon = test system: HT29 colon
SK-OV-3 ovarian = test system: SK-OV-3 ovarian
K-562 leukemia = test system: K-562 leukemia
NCI-H460 lung = test system: NCI-H460 lung
NCI-H226 lung = test system: NCI-H226 lung
HL-60(TB) leukemia = test system: HL-60(TB) leukemia
CAKI-1 renal = test system: CAKI-1 renal
ACHN renal = test system: ACHN renal
A549 NSCLC = test system: A549 NSCLC
SNB-19 CNS = test system: SNB-19 CNS
MOLT-4 leukemia = test system: MOLT-4 leukemia
SK-MEL-5 melanoma = test system: SK-MEL-5 melanoma
SN12C renal = test system: SN12C renal
EKVX NSCLC = test system: EKVX NSCLC
MDA-MB-231 breast = test system: MDA-MB-231 breast
MDA-MB-435 = test system: MDA-MB-435
OVCAR-8 ovarian = test system: OVCAR-8 ovarian

COc1ccc2cn3c4ccc(O)cc4[nH]c(=O)c3c2c1
GI50 (LOX IMVI melanoma): 0.101 µM
TGI (LOX IMVI melanoma): 4.93 µM
GI50 (SK-MEL-28 melanoma): 0.0742 µM
TGI (SK-MEL-28 melanoma): 17.3 µM
GI50 (UACC-62 melanoma): 0.58 µM
TGI (UACC-62 melanoma): 18.1 µM
GI50 (MCF7 breast): 0.236 µM
TGI (MCF7 breast): 14.6 µM
GI50 (SNB-75 CNS): 0.162 µM
TGI (SNB-75 CNS): 18.5 µM
GI50 (SW-620 colon): 0.047 µM
TGI (SW-620 colon): 13.7 µM
GI50 (SF-295 CNS): 0.129 µM
TGI (SF-295 CNS): 12.9 µM
GI50 (TK-10 renal): 2.19 µM
TGI (TK-10 renal): 8.08 µM
GI50 (OVCAR-5 ovarian): 2.72 µM
TGI (OVCAR-5 ovarian): 21.5 µM
GI50 (HCT-15 colon): 0.0438 µM
TGI (HCT-15 colon): 13.2 µM
GI50 (786-0 renal): 0.278 µM
TGI (786-0 renal): 13.4 µM
GI50 (PC-3 prostate): 0.131 µM
TGI (PC-3 prostate): 16.9 µM
GI50 (KM12 colon): 0.0846 µM
TGI (KM12 colon): 14.9 µM
GI50 (NCI-H522 lung): 0.031 µM
TGI (NCI-H522 lung): 1.05 µM
GI50 (HOP-92 NSCLC): 11.6 µM
TGI (HOP-92 NSCLC): 25.8 µM
GI50 (COLO 205 colon): 0.348 µM
TGI (COLO 205 colon): 2.87 µM
GI50 (HOP-62 NSCLC): 0.0864 µM
TGI (HOP-62 NSCLC): 17.3 µM
GI50 (RXF 393 renal): 0.0447 µM
TGI (RXF 393 renal): 1.04 µM
GI50 (SK-MEL-2 melanoma): 0.0602 µM
TGI (SK-MEL-2 melanoma): 12.8 µM
GI50 (M14 melanoma): 0.08 µM
TGI (M14 melanoma): 13.7 µM
GI50 (DU-145 prostate): 0.298 µM
TGI (DU-145 prostate): 15.5 µM
GI50 (NCI/ADR-RES ovarian): 0.0675 µM
TGI (NCI/ADR-RES ovarian): 14.2 µM
GI50 (BT-549 breast): 3.34 µM
TGI (BT-549 breast): 18.1 µM
GI50 (CCRF-CEM leukemia): 0.0845 µM
TGI (CCRF-CEM leukemia): 12.2 µM
GI50 (HCC-2998 colon): 0.301 µM
TGI (HCC-2998 colon): 6.75 µM
GI50 (NCI-H23 lung): 0.402 µM
TGI (NCI-H23 lung): 15.7 µM
GI50 (OVCAR-4 ovarian): 9.51 µM
TGI (OVCAR-4 ovarian): 23.3 µM
GI50 (T-47D breast): 0.573 µM
TGI (T-47D breast): 24.1 µM
GI50 (SR leukemia): 0.0556 µM
TGI (SR leukemia): 3.87 µM
GI50 (U251 CNS): 0.153 µM
TGI (U251 CNS): 12.4 µM
GI50 (A498 renal): 0.404 µM
TGI (A498 renal): 17 µM
GI50 (SF-539 CNS): 0.104 µM
TGI (SF-539 CNS): 12.5 µM
GI50 (SF-268 CNS): 0.217 µM
TGI (SF-268 CNS): 17.5 µM
GI50 (UO-31 renal): 0.456 µM
TGI (UO-31 renal): 15.1 µM
GI50 (HS 578T breast): 0.249 µM
TGI (HS 578T breast): 31.6 µM
GI50 (OVCAR-3 ovarian): 0.0474 µM
TGI (OVCAR-3 ovarian): 7.08 µM
GI50 (UACC-257 melanoma): 8.08 µM
TGI (UACC-257 melanoma): 24.2 µM
GI50 (HCT-116 colon): 0.046 µM
TGI (HCT-116 colon): 1.95 µM
GI50 (RPMI-8226 leukemia): 0.308 µM
TGI (RPMI-8226 leukemia): 7.93 µM
GI50 (IGROV1 ovarian): 0.277 µM
TGI (IGROV1 ovarian): 17.3 µM
GI50 (HT29 colon): 0.273 µM
TGI (HT29 colon): 2.85 µM
GI50 (SK-OV-3 ovarian): 0.0889 µM
TGI (SK-OV-3 ovarian): 13.9 µM
GI50 (K-562 leukemia): 0.0516 µM
TGI (K-562 leukemia): 4.48 µM
GI50 (NCI-H460 lung): 0.114 µM
TGI (NCI-H460 lung): 10.8 µM
GI50 (NCI-H226 lung): 0.313 µM
TGI (NCI-H226 lung): 22.3 µM
GI50 (HL-60(TB) leukemia): 0.111 µM
TGI (HL-60(TB) leukemia): 13 µM
GI50 (CAKI-1 renal): 0.179 µM
TGI (CAKI-1 renal): 17 µM
GI50 (ACHN renal): 0.0762 µM
TGI (ACHN renal): 15.9 µM
GI50 (A549 NSCLC): 0.231 µM
TGI (A549 NSCLC): 18.1 µM
GI50 (SNB-19 CNS): 0.206 µM
TGI (SNB-19 CNS): 18.7 µM
GI50 (MOLT-4 leukemia): 0.308 µM
TGI (MOLT-4 leukemia): 16.7 µM
GI50 (SK-MEL-5 melanoma): 0.0257 µM
TGI (SK-MEL-5 melanoma): 3.45 µM
GI50 (SN12C renal): 0.267 µM
TGI (SN12C renal): 16.2 µM
GI50 (EKVX NSCLC): 0.778 µM
TGI (EKVX NSCLC): 20.7 µM
GI50 (MDA-MB-231 breast): 0.434 µM
TGI (MDA-MB-231 breast): 14.8 µM
GI50 (MDA-MB-435): 0.0248 µM
TGI (MDA-MB-435): 0.0692 µM
GI50 (OVCAR-8 ovarian): 0.302 µM
TGI (OVCAR-8 ovarian): 18.1 µM
